Our source for the Km values is patent US11096991B2, “Nanoreactor using polyion complex polymersomes, and method for producing same” (THE UNIVERSITY OF TOKYO, priority 2015, dated 2021).

As usually defined, the Km is the concentration of substrate that gives half-maximal velocity.

Experiment [1] deals with α-galactosidase (α-GAL), encapsulated in PICsome. Briefly: Enzyme activity of α-GAL encapsulated in PICsome, Michaelis-Menten/Lineweaver-Burk plot with Gal-AMC. As to conditions: substrate Gal-AMC, PBS, 37° C., AMC fluorescence Ex/Em=350 nm/450 nm. The experiment is classed as biochemical. The procedure:
In the same manner as in Section 5 of Example 1, a solution containing empty PICsomes was prepared. Thereafter, 11.4 mg of α-galactosidase (hereinafter referred to as “α-GAL”) was dissolved in 5.7 mL of a 10 mM phosphate buffer (PB, pH 7.4, 0 mM NaCl) to prepare a 2 mg/mL α-GAL solution.
An aliquot (1 mL) was taken from the 2 mg/mL α-GAL solution and mixed with 1 mL of the solution containing empty PICsomes. The solution mixture was stirred by a Vortex mixer for 2 minutes (2000 rpm). Thereafter, to the solution, a PB solution (5.6 mL) containing a water soluble condensing agent, EDC (10 mg/mL) was added. The mixture was allowed to stand still overnight to crosslink a polyion complex. […] A solution of fluorescence labeled α-GAL was prepared in the same manner as above.
Enzyme activity was evaluated with respect to free α-GAL and encapsulated α-GAL, respectively. […] Gal-AMC is decomposed by the enzyme activity of α-GAL to produce 7-amino-4-methyl coumarin (also referred to as “AMC”), which emits fluorescence (Ex/Em=350 nm/450 nm).
More specifically, first, PBS solutions of Gal-AMC, free α-GAL, and encapsulated α-GAL were each placed in a thermostatic chamber and allowed to stand still at 37° C. […] The plate was placed in a multiplate reader kept at 37° C. in advance and fluorescence intensity was measured periodically for a predetermined time. […]

The subject of experiment [2] is α-galactosidase (α-GAL), free (unencapsulated). Briefly: Enzyme activity of free α-GAL, Michaelis-Menten/Lineweaver-Burk plot with Gal-AMC. Format: biochemical. The conditions noted are these: substrate Gal-AMC, PBS, 37° C., AMC fluorescence Ex/Em=350 nm/450 nm. As to the method:
Enzyme activity was evaluated with respect to free α-GAL and encapsulated α-GAL, respectively. The enzyme activity of α-GAL was checked by the reaction with a substrate, α-galactosyl-β-(7-amide-4-methyl coumarin) (also referred to as “Gal-AMC”) as shown in FIG. 19B. Gal-AMC is decomposed by the enzyme activity of α-GAL to produce 7-amino-4-methyl coumarin (also referred to as “AMC”), which emits fluorescence (Ex/Em=350 nm/450 nm).
More specifically, first, PBS solutions of Gal-AMC, free α-GAL, and encapsulated α-GAL were each placed in a thermostatic chamber and allowed to stand still at 37° C. Thereafter, the Gal-AMC solution was mixed with the free α-GAL or encapsulated α-GAL solution. From the solution mixture, an aliquot (predetermined amount) was taken and immediately poured to a 96 well plate (TECAN). The plate was placed in a multiplate reader kept at 37° C. in advance and fluorescence intensity was measured periodically for a predetermined time.
The enzyme activity was evaluated by preparing the Michaelis-Menten plot and Lineweaver-Burk plot. At this time, using a calibration curve previously prepared by using an AMS standard solution, a change of fluorescence intensity was converted into the production rate of a product. In this manner, a reaction rate V was obtained. Measurement was performed by changing the substrate concentration [S] variously. […]

For `Cc1cc(=O)oc2cc(N[C@H]3O[C@H](CO)[C@H](O)[C@H](O)[C@H]3O)ccc12` [Gal-AMC, α-galactosyl-β-(7-amide-4-methylcoumarin)], the Km in experiment [1] was 190 µM; in experiment [2] it was 180 µM.
